Data reported in US10201564B2, “Methods of using inhaled nitric oxide gas for treatment of acute respiratory distress syndrome in children” (Mallinckrodt Hospital Products IP Limited, priority 2014, dated 2019).

System: pediatric subjects with acute hypoxemic respiratory failure (AHRF)
Assay: Pediatric AHRF study: adverse events, serious adverse events, deaths, discontinuations
Assay type: in vivo, human
Conditions: 5 ppm
Experimental: This was a prospective, multicenter, randomized, double-blind, placebo-controlled, parallel-group study of the safety and efficacy of inhaled nitric oxide in pediatric subjects with acute hypoxemic respiratory failure (AHRF). The subjects were randomized to receive either 5 ppm inhaled nitric oxide or placebo.
Nitric Oxide for inhalation at 5 ppm was administered continuously into the inspiratory limb of the ventilator circuit in mechanically ventilated subjects using a blinded version of the INOvent® delivery system.
Subjects received 100% treatment gas (nitric oxide 5 ppm or placebo [nitrogen gas]) until Day 28 or extubation, whichever occurred first.
This was a prospective, multicenter, randomized, double-blind, placebo-controlled, Phase III study to assess the effects of nitric oxide for inhalation in the treatment of acute hypoxic respiratory failure (AHRF) in pediatric subjects. The study population consisted of male and female pediatric subjects, aged 44 weeks postconceptional age to 16 years age, who were admitted to the pediatric intensive care unit (PICU) and who required intubation because of AHRF. The inclusion/exclusion criteria are described in the Patients section below.
Standardized ventilatory management and weaning procedures were used. Ventilatory management was used based on an “open lung approach” using positive end-expiratory pressure (PEEP) to increase lung volume and limiting tidal volumes to reduce plateau pressures. Subjects received nitric oxide for inhalation at 5 ppm or placebo (100% Grade 5 nitrogen gas) into the inspiratory limb of the ventilator circuit using a blinded version of the INOvent® delivery system. The subjects were treated until Day 28 or extubation, whichever occurred first. Subjects were assessed daily using a spontaneous breathing trial, according to the institution's standard of care. Arterial blood gases (ABG), ventilator settings, methemoglobin, oxygenation index, systolic blood pressure, diastolic blood pressure, Pediatric Risk of Mortality (PRISM) III score, and subject positioning (prone or supine) were performed/recorded at specified times during the study. Selected centers also performed plasma cytokine assays, bronchoalveolar lavage fluid (BALF) assays, and a 6-month follow-up assessment.

[1] = AE in which death was the outcome
[2] = AE not suspected related to study treatment
[3] = AE suspected related to study treatment
[4] = AE with death as outcome, not suspected related to treatment

[N]=O [Nitric Oxide, nitric oxide]
3 (11.5%) n (%): Bradycardia [2] | Hypotension [2]
7.7%: subjects with severe AEs (2 subjects, placebo 34.5%)
2: subjects who died during treatment
1 (3.8%) n (%): Bradycardia [1] | Hypotension [1] | Acidosis [2] | Anemia [2] | Apnea [2] | Arrhythmia [2] | Ascites [2] | Bacteria, blood [2] | Bronchoalveolar lavage [2] | Chest tube insertion [2] | Fungemia [2] | Grangrene [2] | Hemoglobinemia [2] | Hepatosplenomegaly [2] | Hypercalcemia [2] | Hyperchloremia [2] | Hyperglycemia [2] | Hyperkalemia [2] | Hypocalcemia [2] | Leukocytosis [2] | Metabolic alkalosis [2] | Pneumonia [2] | Pneumonia, staphylococcal [2] | Pseudomonal sepsis [2] | Renal failure [2] | Respiratory failure [2] | Thrombocythemia [2] | Urinary tract infection [2] | Urinary tract infection, fungal [2] | Urine output decreased [2] | Bradycardia [4]
bradycardia and hypotension: most frequently reported AEs
1: subjects who died during the follow-up period after treatment
0 (0.0) n (%): Brain edema [1] | Cardiac arrest [1] | Diabetic ketoacidosis [1] | Hemolytic anemia [1] | Hepatic failure [1] | Intracranial pressure increased [1] | Multi-organ failure [1] | Pancreatitis [1] | Pneumonia, aspergillus [1] | Pulmonary hemorrhage [1] | Renal failure [1] | Renal impairment [1] | Sepsis [1] | Abdominal distension [2] | Bacteria, sputum [2] | Bladder distension [2] | Brain edema [2] | C-reactive protein increased [2] | Cardiac arrest [2] | Cerebral artery occlusion [2] | Device failure [2] | Diabetic ketoacidosis [2] | Diarrhea [2] | Disseminated intravascular coagulation [2] | Empyema [2] | Feeding disorder [2] | Fungus culture positive [2] | Fungus urine test positive [2] | Gastrointestinal hemorrhage [2] | Generalized edema [2] | Hematuria [2] | Hemolytic anemia [2] | Hemopneumothorax [2] | Hemorrhage [2] | Hemothorax [2] | Hepatic failure [2] | Hyperammonemia [2] | Hypercapnia [2] | Hyperlipidemia [2] | Hypertension [2] | Hypochloremia [2] | Hypothermia [2] | Hypoxia [2] | Intracranial pressure increased [2] | Labile blood pressure [2] | Lung infection, pseudomonal [2] | Medical device removal [2] | Metabolic acidosis [2] | Multi-organ failure [2] | Ocular icterus [2] | Oliguria [2] | Pancreatitis [2] | Pleural effusion [2] | Pneumomediastinum [2] | Pneumonia, aspergillus [2] | Pruritus [2] | Pulmonary hemorrhage [2] | Pulmonary hypertension [2] | Pyrexia [2] | Renal failure, acute [2] | Renal impairment [2] | Respiratory acidosis [2] | Sepsis [2] | Skin injury [2] | Subdural hematoma [2] | Thrombocytopenia [2] | White blood cell count increased [2] | Abdominal distension [3] | Acidosis [3] | Agitation [3] | Anemia [3] | Apnea [3] | Arrhythmia [3] | Ascites [3] | Bacteremia [3] | Bacteria, blood [3] | Bacteria, sputum [3] | Bladder distension [3] | Bradycardia [3] | Brain edema [3] | Bronchoalveolar lavage [3] | C-reactive protein increased [3] | Cardiac arrest [3] | Cerebral artery occlusion [3] | Chest tube insertion [3] | Deep vein thrombosis [3] | Device failure [3] | Diabetic ketoacidosis [3] | Diarrhea [3] | Disseminated intravascular coagulation [3] | Empyema [3] | Feeding disorder [3] | Fungemia [3] | Fungus culture positive [3] | Fungus urine test positive [3] | Gastrointestinal hemorrhage [3] | Generalized edema [3] | Grangrene [3] | Hematuria [3] | Hemoglobinemia [3] | Hemolytic anemia [3] | Hemopneumothorax [3] | Hemorrhage [3] | Hemothorax [3] | Hepatic failure [3] | Hepatosplenomegaly [3] | Hyperammonemia [3] | Hypercalcemia [3] | Hypercapnia [3] | Hyperchloremia [3] | Hyperglycemia [3] | Hyperkalemia [3] | Hyperlipidemia [3] | Hypernatremia [3] | Hypertension [3] | Hypocalcemia [3] | Hypochloremia [3] | Hypokalemia [3] | Hypotension [3] | Hypothermia [3] | Hypoxia [3] | Intracranial pressure increased [3] | Labile blood pressure [3] | Leukocytosis [3] | Lung infection, pseudomonal [3] | Medical device removal [3] | Metabolic acidosis [3] | Metabolic alkalosis [3] | Multi-organ failure [3] | Ocular icterus [3] | Oliguria [3] | Oxygen saturation decreased [3] | Pancreatitis [3] | Pleural effusion [3] | Pneumomediastinum [3] | Pneumonia [3] | Pneumonia, aspergillus [3] | Pneumonia, staphylococcal [3] | Pneumothorax [3] | Pruritus [3] | Pseudomonal sepsis [3] | Pulmonary hemorrhage [3] | Pulmonary hypertension [3] | Pyrexia [3] | Renal failure [3] | Renal failure, acute [3] | Renal impairment [3] | Respiratory acidosis [3] | Respiratory failure [3] | Sepsis [3] | Skin injury [3] | Subdural hematoma [3] | Thrombocythemia [3] | Thrombocytopenia [3] | Tracheitis [3] | Unevaluable event [3] | Urinary tract infection [3] | Urinary tract infection, fungal [3] | Urine output decreased [3] | White blood cell count increased [3] | Brain edema [4] | Cardiac arrest [4] | Diabetic ketoacidosis [4] | Hemolytic anemia [4]
61.5%: subjects reporting AEs (16 of 26 subjects, placebo 72.4%)
2 (7.7%) n (%): Agitation [2] | Bacteremia [2] | Deep vein thrombosis [2] | Hypernatremia [2] | Hypokalemia [2] | Oxygen saturation decreased [2] | Pneumothorax [2] | Tracheitis [2] | Unevaluable event [2]
3.9%: frequency of treatment discontinuation due to AEs (1 of 26 subjects, placebo 6.9%) | subjects with serious AEs (SAEs) (1 of 26 subjects, placebo 27.6%)
